Experimental data as given in patent US20080131920A1, “Ion flux in biological processes, and methods related thereto” (priority 2005, published 2008).
Where “and” joins values, the source holds several entries; their conditions need not be identical. Identical values can stand only once.

Columns and labels:
H3P-positive cells = test: H3P-positive proliferating cell quantification in amputated larvae; format: in vivo, Xenopus laevis; details: for Average count of H3P-positive cells / Individual counts of H3P-positive cells: medial (flank) region
Description: To gain insight into the cellular mechanisms by which the V-ATPase participates in regeneration, we characterized the pattern of proliferating cells during regeneration, using an antibody to the phosphorylated Histone 3B—a standard marker of cells in the G2/M transition of the cell cycle, useful for identifying mitotic cells in regenerating systems including Xenopus (Saka and Smith, 2001, Dev Biol 229: 307-18; Sanchez Alvarado, 2003, Current Opinion in Genetics & Development 13: 438-444). At 24 hpa, this subset of proliferating cells is homogenously distributed throughout the growing tail (FIG. 14A). […]. […].
H3P staining marks cells in the G2/M transition of the cell cycle, and is commonly used for identifying mitotic cells in regenerating systems including Xenopus (Saka and Smith, 2001, Dev Biol 229: 307-18; Sanchez Alvarado, 2003, Current Opinion in Genetics & Development 13: 438-444). Fixed specimens at the stages indicated were processed for H3P staining as above using an alkaline-phosphatase secondary. Bleaching of the natural pigments in samples allowed easy counting of H3P-positive cells. The close-up panel to the left illustrates the distinction between purple alkaline-phosphatase signal (H3P-positive nuclei) and brown melanocytes. […] Between 4 and 6 samples were counted for each stage and each condition. Similar numbers were obtained in immunohistochemistry performed on sections as in wholemounts and in fluorescent detection (i.e., reagent penetration and chromogenic staining are not confounding factors in H3P-positive cell detection). […]

XNr-1 = test: Left-sided XNr-1 expression by whole mount in situ hybridization; parameters: species or system Xenopus laevis; details: in vivo
Experimental: As outlined above, effects on asymmetry were initially evaluated by inspection of embryo morphology. […] Embryos were treated with the H^+-V-ATPase inhibitory compound concanamycin.
Whole mount in situ hybridization (WISH) on Xenopus was performed according to standard methods. DNA used to transcribe in situ hybridization probes were XNr-1 (Lohr et al., 1998, Developmental Genetics 23: 194-202; Lowe et al., 1996, Nature 381: 158-161); cShh (Levin et al., 1995, Cell 82: 803-814); cNodal (Levin et al., 1995, Cell 82: 803-814).

axons of the tail = test: Axonal patterning in regenerating tails (acetylated α-tubulin immunohistochemistry); parameters: species or system Xenopus laevis; details: in vivo
Description: Finally, to characterize downstream morphogenetic consequences of V-ATPase abrogation, we traced axonal paths during regeneration using immunohistochemistry with an acetylated α-tubulin antibody. In normally regenerating tails, axons appear increased in number (relative to the uncut portion of tail) and they extend into the bud in bundles parallel to the main anterior-posterior axis of the tail (FIG. 14H; green arrows indicate normal axon patterning, while black arrows indicate abnormal axon number and/or location). […] Moreover, in normal refractory tails, there is no apparent increase in the number of axons, and those that are present terminate well anterior of the tail tip (FIG. 14K). […]
Axon and muscle marker detection was performed using fluorescent secondary antibodies. […] Fluorescence images were collected on a Leica TCS SPZ confocal imaging system; λex=543. […] Background autofluorescence was removed by segmentation of the original fluorescence images. The brightest pixels could readily be selected such that the selection best represented the pattern of axons. […]

[1] = system: Xenopus tail regeneration
primitive streak cells = test: Cellular pH imaging of early chick blastoderm with SNARF-1-AM; format: in vivo
Xenopus embryos = format: in vivo; details: treated from fertilization to stage 7; organs scored at stage 45
[2] = system: Vmem of Xenopus blastomeres; test: Membrane voltage imaging of blastomeres with DiBAC4(3); format: in vivo, Xenopus laevis; details: control vs treated embryos
Description: Embryos marked with Alexa 647 dextran in the right ventral cell (RV) at the four cell stage (to allow orientation with respect to both axes) were monitored using DiBAC4(3) at the 4, 8, 16, and 32 cell stages. At 16 cells, we observed hyperpolarization of the RV quadrant, relative to the LV quadrant. DiBAC4(3) intensity on the left was greater than on the right. This pattern and its embryological timing are consistent with the self-referencing probe data, and with the hypothesis that higher net H^+ efflux from the right side results in a difference in membrane potential across the ventral midline.
We confirmed this in Xenopus blastomeres by imaging Vmem in vivo in control and concanamycin-treated embryos. Predicting that the membrane would depolarize if H^+-V-ATPase-based proton efflux was inhibited, we monitored Vmem using the voltage-reporting dye DiBAC4(3).
Bis-(1,3-[…])-trimethine oxanol (DiBAC4(3), Molecular Probes, Eugene, Oreg.) is a membrane-permeant, fluorescent molecule that accumulates inside a cell in proportion to the membrane voltage. Because it is anionic, the more depolarized a cell, the greater the accumulation of DiBAC4(3) and the greater the intensity of intracellular, relative to extracellular, fluorescence. […]. The dye was excited with 488 nm light from an argon laser and a 20 nm band of emission wavelengths centered at 515 was collected.

**Q.** Which results are given for `C/C=C/[C@H]1O[C@@](O)([C@@H](C)[C@H](O)[C@H](C)[C@H]2OC(=O)/C(OC)=C/C(C)=C/[C@@H](C)[C@@H](O)[C@@H](CC)[C@@H](O)[C@H](C)C/C(C)=C/C=C/[C@@H]2OC)C[C@@H](O)[C@@H]1C` [concanamycin]?
**A.** Average count of H3P-positive cells (H3P-positive cells; 24 hpa): 51; Individual counts of H3P-positive cells (H3P-positive cells; 24 hpa): 79 and 26 and 45 and 53; Average count of H3P-positive cells (H3P-positive cells; 48 hpa): 49; Individual counts of H3P-positive cells (H3P-positive cells; 48 hpa): 39 and 58 and 51 and 46; reduction in the number of proliferating cells (H3P-positive cells; by 24 hpa, general (flank)): 3 fold; change in number of proliferating cells in the mid-flank between 24 and 48 hpa (H3P-positive cells; in vivo): does not change significantly; left-sided gene expression of XNr-1 (XNr-1): perturbed the normally left-sided gene expression; axon patterning in V-ATPase-inhibited tails (axons of the tail): axon patterning is abnormal; general toxicity ([1]; 150 nM): absence of general toxicity; effect on tail regeneration ([1]; 150 nM, larvae amputated at stage 41): strong inhibition of regeneration; effect on rate or extent of tail regeneration ([1]; compound in medium beginning immediately after tail amputation (stage 40-41)): absence of regeneration; Regeneration Index Treated/Control ([1]; tail regeneration in the compound versus control): 23%; Regeneration Index Treated ([1]; tail regeneration in the compound, RI computed for each dish of embryos): 49; pH of cells in the primitive streak (primitive streak cells): lowered the pH; heterotaxia, % of the embryos (Xenopus embryos): 35%; effect on Vmem [2]: depolarizes Vmem
